Results on 13 compounds are retold here after ChEMBL document CHEMBL1135558, “Chemical modification of reveromycin A and its biological activities” (Bioorg Med Chem Lett, 2002).

For test [1], the target named is T1, Isoleucyl-tRNA synthetase (Rattus norvegicus, UniProt O35880).
T1 sequence (O35880 whole entry): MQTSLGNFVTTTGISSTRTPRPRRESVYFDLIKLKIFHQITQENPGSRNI
The test is described as follows: Inhibitory concentration against Isoleucyl-tRNA synthetase (IleRS) activity.

Test [2] concerns NRK. As to the kind of experiment: In vitro inhibition of protein synthesis in srcts-NRK cell at 1 ug/mL. Format: functional. Particulars: Rattus norvegicus.
In test [3] the test system is NRK. As to the kind of experiment: Morphological reversion of srcts-NRK cells concentration at 100 ug/mL. Format: functional, Rattus norvegicus.
In test [4] the test system is NRK. As to the kind of experiment: Morphological reversion of src-transformed-NRK cells at 20 ug/mL. The format is functional, Rattus norvegicus.
The subject of test [5] is NRK. The test is described as follows: Morphological reversion of src-transformed-NRK cells at 50 ug/mL. Format: functional.
The test system of test [6] is NRK. The test is described as follows: Morphological reversion of src-transformed-NRK cells at 10 ug/mL. The format is functional, Rattus norvegicus.
For test [7], the system named is NRK. As to the kind of experiment: Morphological reversion of src-transformed-NRK cells at 5 ug/mL. Format: functional, Rattus norvegicus.
For test [8], the system named is NRK. The test is described as follows: In vitro inhibition of protein synthesis in src-transformed-NRK cell at 1 ug/mL. Format: functional. The settings on record: Rattus norvegicus.
Test [9] deals with NRK. The test is described as follows: Morphological reversion of src-transformed-NRK cells at 0.1 ug/mL. The format is functional, Rattus norvegicus.
Test [10] deals with NRK. As to the kind of experiment: Morphological reversion of src-transformed-NRK cells at 2 ug/mL. The format is functional, Rattus norvegicus.
Test [11] concerns NRK. The test is described as follows: Morphological reversion of src-transformed-NRK cells at 1 ug/mL. The format is functional, Rattus norvegicus.
The test system of test [12] is NRK. The test is described as follows: Morphological reversion of src-transformed-NRK cells at 5 ug/mL; 20-50. The format is functional, Rattus norvegicus.

Molecules are shown by their SMILES.

As usually defined, the IC50 is the concentration at which inhibition is half-maximal. A lower IC50 goes with higher potency. Usually inhibition stands for the percentage by which the read-out fell short of the control. The low end stands for a response near the control, the high end for a response far below the control. For `CCCC[C@]1([C@@H](O)/C=C/C(C)=C/C(=O)O)CC[C@]2(CC[C@H](C)[C@@H](C/C=C(C)/C=C/[C@H](O)[C@@H](C)/C=C/C(=O)O)O2)O1`, in [1], the IC50 was less than 1780 nM. This compound also came in with an inhibition at 1 µg/mL in the test on NRK [2] of less than 20%. Further, in the test with NRK [3], the Reversion is less than 20%.

`CCCC[C@@]1(OC)CC[C@]2(CC[C@H](C)[C@@H](C/C=C(C)/C=C/[C@H](O)[C@@H](C)/C=C/C(=O)O)O2)O[C@H]1/C=C/C(C)=C/C(=O)O` showed an IC50 in test [1] of 44.4 nM. Besides, the Reversion with NRK [4] was 50%; with NRK [5], more than 80%; in the test on NRK [6], 50%; in the test on NRK [3], more than 80%. The inhibition at 1 µg/mL with NRK [2] is more than 80%.

Compound `CCCC[C@@]1(OC(=O)CCC(=O)O)CC[C@]2(CC[C@H](C)[C@@H](C/C=C(C)/C=C/[C@H](OC(C)=O)[C@@H](C)/C=C/C(=O)O)O2)O[C@H]1/C=C/C(C)=C/C(=O)O` yielded an IC50 in [1] of less than 1420 nM. Besides, the Reversion is reported as more than 80% with NRK [4]; less than 20% with NRK [7]; more than 80% in the test with NRK [5]; 50% in the test on NRK [6]; more than 80% in the test with NRK [3]. The inhibition at 1 µg/mL with NRK [8] was less than 20%.

`CCCC[C@@]1(OC(=O)CCC(=O)OC)CC[C@]2(CC[C@H](C)[C@@H](C/C=C(C)/C=C/[C@H](O)[C@@H](C)/C=C/C(=O)OC)O2)O[C@H]1/C=C/C(C)=C/C(=O)O` showed a 50% inhibitory concentration (IC50) in test [1] of 1450 nM. The Reversion in the test with NRK [7] is reported as more than 80%; with NRK [9], 20%; in the test on NRK [6] it was more than 80%; with NRK [3], more than 80%; in the test with NRK [10], more than 80%; in the test with NRK [11], more than 80%. The compound also yielded an inhibition at 1 µg/mL in the test with NRK [2] of less than 20%.

`CCCC[C@@]1(OC(=O)CCC(=O)O)CC[C@]2(CC[C@H](C)[C@@H](C/C=C(C)/C=C/[C@H](OC)[C@@H](C)/C=C/C(=O)O)O2)O[C@H]1/C=C/C(C)=C/C(=O)O` had an IC50 in test [1] of 245 nM. In the test on NRK [2], testing at 1 µg/mL gave an inhibition of 50%. This compound also came in with a Reversion in the test on NRK [3] of less than 20%.

As for `CCCC[C@]1([C@H](/C=C/C(C)=C/C(=O)O)OC)CC[C@]2(CC[C@H](C)[C@@H](C/C=C(C)/C=C/[C@H](O)[C@@H](C)/C=C/C(=O)O)O2)O1`, the IC50 in test [1] is less than 1740 nM. In the test with NRK [2], the inhibition at 1 µg/mL was less than 20%. For the same compound, the Reversion in the test on NRK [3] is listed as less than 20%.

As for `CCCC[C@@]1(OC(=O)CCC(=O)O)CC[C@]2(CC[C@H](C)[C@@H](CCC(C)CC[C@H](O)[C@@H](C)CCC(=O)O)O2)O[C@H]1CCC(C)CC(=O)O` (stereo partly drawn), the IC50 in [1] was less than 1490 nM. Also, the inhibition at 1 µg/mL with NRK [2] was less than 20%. In the test with NRK [3], this compound displayed a Reversion of less than 20%.

In test [1], `CCCC[C@@]1(O)CC[C@]2(CC[C@H](C)[C@@H](C/C=C(C)/C=C/[C@H](O)[C@@H](C)/C=C/C(=O)O)O2)O[C@H]1/C=C/C(C)=C/C(=O)O` gave an IC50 of 74.4 nM. For the same compound, the inhibition at 1 µg/mL in the test with NRK [2] was more than 80%. In the test on NRK [3], the Reversion is given as less than 20%.

In test [1], `CCCC[C@@]1(OC(=O)CCC(=O)OC)CC[C@]2(CC[C@H](C)[C@@H](C/C=C(C)/C=C/[C@H](O)[C@@H](C)/C=C/C(=O)OC)O2)O[C@H]1/C=C/C(C)=C/C(=O)OC` had an IC50 of less than 1420 nM. In the test with NRK [2], this compound showed an inhibition at 1 µg/mL of less than 20%. Further, in the test on NRK [3], the Reversion was less than 20%.

In turn, `CCCC[C@@]1(OCSC)CC[C@]2(CC[C@H](C)[C@@H](C/C=C(C)/C=C/[C@H](O)[C@@H](C)/C=C/C(=O)O)O2)O[C@H]1/C=C/C(C)=C/C(=O)OC` returned an IC50 in [1] of less than 1580 nM. The compound further gave an inhibition at 1 µg/mL with NRK [2] of less than 20%. Also, in the test on NRK [3], the Reversion is less than 20%.

Compound `CCCC[C@@]1(OCSC)CC[C@]2(CC[C@H](C)[C@@H](C/C=C(C)/C=C/[C@H](O)[C@@H](C)/C=C/C(=O)O)O2)O[C@H]1/C=C/C(C)=C/C(=O)O` had an IC50 in test [1] of 353 nM. Moreover, the Reversion in the test on NRK [5] is given as 50%; in the test with NRK [6], less than 20%; in the test with NRK [3], more than 80%. Besides, in the test with NRK [2], the inhibition at 1 µg/mL is more than 80%.

For the compound `CCCC[C@@]1(OC(=O)CCC(=O)O)CC[C@]2(CC[C@H](C)[C@@H](C/C=C(C)/C=C/[C@H](O)[C@@H](C)/C=C/C(=O)O)O2)O[C@H]1/C=C/C(C)=C/C(=O)O` [REVEROMYCIN A], it took 1.97 nM to reach half-maximal inhibition in test [1] (IC50). Also, the Reversion in the test with NRK [4] was more than 80%; in the test on NRK [12], 20%; in the test on NRK [5], more than 80%; in the test on NRK [6], 50%; in the test on NRK [3], more than 80%; in the test with NRK [10] it was less than 20%. In addition, the inhibition at 1 µg/mL in the test on NRK [2] is more than 80%.

Compound `CCCC[C@]1([C@H](/C=C/C(C)=C/C(=O)O)OC(=O)CCC(=O)O)CC[C@]2(CC[C@H](C)[C@@H](C/C=C(C)/C=C/[C@H](O)[C@@H](C)/C=C/C(=O)O)O2)O1` [REVEROMYCIN B] showed an IC50 in [1] of less than 1510 nM. The inhibition at 1 µg/mL in the test on NRK [2] was less than 20%. Also, in the test on NRK [3], the Reversion is less than 20%.
